Earlier results as cited in patent US20250049595A1, “ZOTAROLIMUS-ROSUVASTATIN ELUTING BIODEGRADABLE STENT” (priority 2023, published 2025).

Settings: targeted by typical daily dose between 5 and 40 mg

- plasma concentration: 0.5 ng/mL
SMILES: CC(C)c1nc(N(C)S(C)(=O)=O)nc(-c2ccc(F)cc2)c1/C=C/[C@@H](O)C[C@@H](O)CC(=O)O [Rosuvastatin]
